Source: patent publication US20090117563A1, “Identification of TRPML3 (MCOLN3) as a Salty Taste Receptor and Use in Assays for Identifying Taste (Salty) Modulators and/or Therapeutics that Modulate Sodium Transport, Absorption or Excretion and/or Aldosterone and/or Vasopressin Production or Release” (priority 2007, published 2009)

T1: A419P TRPML3 (Homo sapiens, UniProt Q8TDD5, A419P)
T1 construct: expressed in transfected cells
T1 sequence (Q8TDD5 1-553 A419P): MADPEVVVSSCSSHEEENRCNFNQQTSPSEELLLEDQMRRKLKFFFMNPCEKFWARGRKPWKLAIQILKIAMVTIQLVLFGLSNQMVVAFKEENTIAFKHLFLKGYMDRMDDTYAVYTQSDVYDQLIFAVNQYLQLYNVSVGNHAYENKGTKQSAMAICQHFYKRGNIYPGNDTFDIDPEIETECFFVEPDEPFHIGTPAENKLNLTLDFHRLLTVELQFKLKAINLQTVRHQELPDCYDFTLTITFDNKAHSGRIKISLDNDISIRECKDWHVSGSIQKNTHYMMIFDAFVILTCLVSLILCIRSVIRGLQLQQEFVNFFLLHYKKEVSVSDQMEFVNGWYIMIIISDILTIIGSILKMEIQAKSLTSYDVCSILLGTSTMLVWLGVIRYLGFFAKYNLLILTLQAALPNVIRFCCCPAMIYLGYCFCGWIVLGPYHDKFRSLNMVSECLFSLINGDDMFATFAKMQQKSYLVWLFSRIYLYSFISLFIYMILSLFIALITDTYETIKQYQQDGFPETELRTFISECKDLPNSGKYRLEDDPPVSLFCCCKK

T2: human TRPML3 (Homo sapiens, UniProt Q8TDD5)
T2 construct: expressed in transfected cells
T2 sequence (Q8TDD5 1-553): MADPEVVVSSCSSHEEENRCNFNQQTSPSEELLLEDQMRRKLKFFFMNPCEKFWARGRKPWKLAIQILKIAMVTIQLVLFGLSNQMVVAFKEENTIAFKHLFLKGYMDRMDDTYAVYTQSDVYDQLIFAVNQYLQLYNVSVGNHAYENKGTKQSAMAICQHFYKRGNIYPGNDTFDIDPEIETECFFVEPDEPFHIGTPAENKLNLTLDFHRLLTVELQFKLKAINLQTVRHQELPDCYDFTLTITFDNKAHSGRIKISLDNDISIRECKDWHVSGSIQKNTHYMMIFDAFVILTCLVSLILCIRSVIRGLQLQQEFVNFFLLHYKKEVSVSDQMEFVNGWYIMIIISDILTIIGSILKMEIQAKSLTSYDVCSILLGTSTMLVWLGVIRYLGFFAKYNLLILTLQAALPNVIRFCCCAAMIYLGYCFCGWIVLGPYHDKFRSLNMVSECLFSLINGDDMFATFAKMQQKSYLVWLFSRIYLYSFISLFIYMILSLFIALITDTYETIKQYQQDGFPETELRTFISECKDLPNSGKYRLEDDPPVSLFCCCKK

T3: Homo sapiens TRPML3 A419P, expressed in HEK293 cells (human, UniProt Q8TDD5 1-553)
T3 sequence: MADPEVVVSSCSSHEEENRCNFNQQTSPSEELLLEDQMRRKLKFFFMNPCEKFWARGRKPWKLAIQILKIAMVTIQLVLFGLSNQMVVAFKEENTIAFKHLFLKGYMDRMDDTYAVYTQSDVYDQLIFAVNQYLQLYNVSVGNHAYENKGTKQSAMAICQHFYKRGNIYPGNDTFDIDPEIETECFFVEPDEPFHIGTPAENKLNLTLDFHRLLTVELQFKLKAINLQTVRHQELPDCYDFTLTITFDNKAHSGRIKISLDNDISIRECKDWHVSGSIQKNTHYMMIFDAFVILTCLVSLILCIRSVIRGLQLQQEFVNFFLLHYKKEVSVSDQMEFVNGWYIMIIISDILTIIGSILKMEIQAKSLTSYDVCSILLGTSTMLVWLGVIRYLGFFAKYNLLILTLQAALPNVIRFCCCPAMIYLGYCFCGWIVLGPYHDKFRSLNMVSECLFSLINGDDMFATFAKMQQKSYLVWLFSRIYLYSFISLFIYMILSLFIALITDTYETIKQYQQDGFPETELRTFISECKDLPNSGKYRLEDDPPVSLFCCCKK


Key:
[1] = tested on: human salty taste (sodium chloride taste intensity); assay: Human salty taste perception (perceived salt intensity); type: in vivo; settings: tested at 300-fold (amiloride) and 3000-fold above IC50 values for alpha beta gamma ENaC
From the text: Unlike other mammals, amiloride only slightly reduces the intensity of sodium chloride taste, i.e., by about 15-20% when used at concentrations that specifically modulate ENaC function (Halpern, B. P. (1998) Neuroscience and Behavioral Reviews. 23: 5-47). […] Based thereon, it was theorized that other (ENaC genes) were involved in human salty taste perception.

A419P TRPML3 = target: T1, A419P TRPML3; assay: FLIPR membrane potential dye assay, HEK293 cells expressing A419P-TRPML3; type: cell-based; settings: amiloride
From the text: Specific cell-based assays for the discovery of TRPML3 modulators were developed which that could ultimately be used in food and beverages to modulate saltiness perception. A419P-TRPML3 function was monitored in HEK293 cells transiently transfected or transduced with the gene encoding A419P-TRPML3 and using specific membrane potential dyes (FMPs; Molecular Devices).
(§1) HEK293 cells were transiently transfected with RFP, αENaC or A419P-TRPML3 and were loaded with a membrane potential dye (R-8034; Molecular Devices) in HBSS at room temperature for 30 minutes. Membrane potential (fluorescent signal) was monitored on a FLIPR system (Molecular Devices).
(§2) HEK293 cells were transiently transfected with RFP or A419P-TRPML3 and were loaded with a membrane potential dye (R-8034; Molecular Devices) in HBSS at room temperature for 30 minutes. Membrane potential (fluorescent signal) was monitored on a FLIPR system (Molecular Devices).
as §2, with “HBSS, NMDG and increasing concentrations of gadolinium were added to the cells and resulting changes in membrane” for “Membrane”
as §1, with “RFP, A419P-TRPML3 or” for “RFP,”, “plasmid” for “or A419P-TRPML3”, “HBSS (control), 3 mM gadolinium and 30 uM Amiloride were added to the cells and resulting changes in membrane” for “Membrane”

αENaC = target: T4, αENaC (Homo sapiens, UniProt P37088); assay: FLIPR membrane potential dye assay, HEK293 cells transfected with αENaC; type: cell-based; settings: 30 uM Amiloride; αENaC versus A419P-TRPML3 transfected cells
T4 construct: expressed in transfected cells; host or cells: HEK293, transient transfection
T4 sequence (P37088 whole entry): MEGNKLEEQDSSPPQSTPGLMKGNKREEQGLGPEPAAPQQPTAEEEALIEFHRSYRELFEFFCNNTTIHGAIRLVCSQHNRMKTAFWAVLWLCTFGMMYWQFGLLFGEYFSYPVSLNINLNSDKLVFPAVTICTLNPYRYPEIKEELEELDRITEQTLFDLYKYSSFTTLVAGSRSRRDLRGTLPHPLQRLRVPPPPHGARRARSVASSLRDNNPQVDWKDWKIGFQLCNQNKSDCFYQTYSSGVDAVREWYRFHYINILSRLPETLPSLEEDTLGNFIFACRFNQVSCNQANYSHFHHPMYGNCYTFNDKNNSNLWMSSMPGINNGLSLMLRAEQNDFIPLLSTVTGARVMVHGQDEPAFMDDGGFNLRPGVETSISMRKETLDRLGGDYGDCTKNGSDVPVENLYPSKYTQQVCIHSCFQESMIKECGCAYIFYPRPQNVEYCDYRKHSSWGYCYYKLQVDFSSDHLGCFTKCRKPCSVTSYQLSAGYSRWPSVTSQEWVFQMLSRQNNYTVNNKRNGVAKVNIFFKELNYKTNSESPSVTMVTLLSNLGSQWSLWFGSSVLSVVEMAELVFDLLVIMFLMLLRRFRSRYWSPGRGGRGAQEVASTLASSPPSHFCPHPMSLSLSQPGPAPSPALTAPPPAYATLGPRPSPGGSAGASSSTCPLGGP
Protocol: as §1
as §1, with “RFP, A419P-TRPML3 or” for “RFP,”, “plasmid” for “or A419P-TRPML3”, “HBSS (control), 3 mM gadolinium and 30 uM Amiloride were added to the cells and resulting changes in membrane” for “Membrane”

human TRPML3 = target: T2, human TRPML3; assay: Whole cell patch clamp electrophysiology of cells expressing human TRPML3; type: cell-based
From the text: The whole cell voltage clamp technique is an electrophysiology method that measures the macroscopic electrical current flowing across the entire plasma membrane though protein channels. Live mammalian cells are placed in a special microscope chamber containing extracellular solution. Guided by a micromanipulator and under visual control, a small diameter glass pipette filled with an electrically conductive salt solution is first attached to the cell membrane using gentle negative pressure resulting in a high resistance gigaOhm seal. The membrane patch within the pipette is disrupted using further suction resulting in the whole cell patch clamp configuration. The whole cell patch clamp configuration allows the combined measurement of all ion channels proteins within the membrane or macroscopic current. Using the patch clamp amplifier in combination with the whole-cell patch clamp configuration allows the operator to control the voltage, or potential difference across the entire cell membrane, as well as the both the internal and external ionic composition of the cell. […]

[2] = tested on: human salty taste (sodium chloride taste intensity); settings: concentrations that specifically modulate ENaC function; cited from earlier work
[3] = target: T3, Homo sapiens TRPML3 A419P, expressed in …; assay: cell-based or functional assay

inward currents, whole cell patch clamp, HEK293 cells coexpressing A419P (0.5 ug) and WT (1.5 ug) TRPML3 cDNAs [3] | Molecule | effect on perceived human salt intensity [1] | effect on the increased basal fluorescence elicited by A419P-TRPML3 (A419P TRPML3) | effect on basal fluorescence counts, specificity (αENaC) | block of TRPML3 sodium conductance (current-voltage curves) (human TRPML3; 30 uM amiloride) | block of TRPML3 (human TRPML3; no concentration given) | reduction of the intensity of sodium chloride taste [2]
 | N=C(N)NC(=O)c1nc(Cl)c(N)nc1N [amiloride] | did not elicit a significant effect | no effect | preferentially reduces basal fluorescence counts | not blocked | not blocked | 15-20%
 | NC(=Nc1ccccc1)NC(=O)c1nc(Cl)c(N)nc1N [phenamil] | did not elicit a significant effect |  |  |  |  | 
2 fold against A419P cDNA alone | Homo sapiens TRPML3 (NM_018298), wild-type, non codon optimized cDNA, expressed in HEK293 cells (other) MADPEVVVSSCSSHEEENRCNFNQQTSPSEELLLEDQMRRKLKFFFMNPCEKFWARGRKPWKLAIQILKIAMVTIQLVLFGLSNQMVVAFKEENTIAFKHLFLKGYMDRMDDTYAVYTQSDVYDQLIFAVNQYLQLYNVSVGNHAYENKGTKQSAMAICQHFYKRGNIYPGNDTFDIDPEIETECFFVEPDEPFHIGTPAENKLNLTLDFHRLLTVELQFKLKAINLQTVRHQELPDCYDFTLTITFDNKAHSGRIKISLDNDISIRECKDWHVSGSIQKNTHYMMIFDAFVILTCLVSLILCIRSVIRGLQLQQEFVNFFLLHYKKEVSVSDQMEFVNGWYIMIIISDILTIIGSILKMEIQAKSLTSYDVCSILLGTSTMLVWLGVIRYLGFFAKYNLLILTLQAALPNVIRFCCCAAMIYLGYCFCGWIVLGPYHDKFRSLNMVSECLFSLINGDDMFATFAKMQQKSYLVWLFSRIYLYSFISLFIYMILSLFIALITDTYETIKQYQQDGFPETELRTFISECKDLPNSGKYRLEDDPPVSLFCCCKK |  |  |  |  |  | 
